US20100087457A1, “DOSAGES AND METHODS FOR THE TREATMENT OF CANCER” (Myriad Pharmaceuticals, Inc, priority 2007, published 2010)
Counter-ions that a name gives are not always drawn. Like-named read-outs stand apart in the source and are kept apart here.

Experiments:
[1] = Phase I clinical trial: plasma concentrations after weekly intravenous infusion (pharmacokinetics); type: in vivo, human; conditions: human, plasma, iv; for concentration at 1 h / concentration at 1 h after end of infusion: 1 hr after infusion; for concentration at 24 h after end of infusion / concentration at 24 h: 24 hr after infusion; for concentration at 12 h after end of infusion / concentration at 12 h: 12 hr after infusion; for concentration at 2 h / concentration at 2 h after end of infusion: 2 hr after infusion; for concentration at 4 h / concentration at 4 h after end of infusion: 4 hr after infusion; for Cmax: intravenous administration of a single dose, read-out: estimated Cmax
Procedure: (§1) An open-label, dose-escalating, multiple-dose study to define the safety, tolerability and pharmacokinetics of weekly intravenous administration of (4-Methoxy-phenyl)-methyl-(2-methyl-quinazolin-4-yl)-amine hydrochloride was performed. A dosing schedule (each 4 week cycle) was performed for (4-Methoxy-phenyl)-methyl-(2-methyl-quinazolin-4-yl)-amine hydrochloride weekly for 3 weeks with no infusion on the fourth week of each cycle. Subjects with refractory solid tumors were enrolled in cohorts of 3. During Cycle 1, subjects were hospitalized during each infusion of (4-Methoxy-phenyl)-methyl-(2-methyl-quinazolin-4-yl)-amine hydrochloride and remained for observation and safety evaluation for approximately 24 hours following the end of the infusion. All subjects had continuous telemetry for 2 hours prior to infusion, for 1-2 hour infusion and for 3 hours after the end of the infusion. Any clinically significant electrocardiographic (ECG) wave form abnormality was recorded and prolongation of the monitoring period extended at the discretion of the principal investigator.
Blood samples were collected prior to dosing, at the end of the infusion, and 1, 2, 4, 6, 12, and 24 hours after the infusion. This sampling schedule occurred on Days 1 and 15 with administration of the first and third doses. Samples were collected into tubes containing EDTA and stored on ice until centrifuged. The plasma was frozen at approximately −20° C. in labeled, plastic tubes, or vials, and tightly capped. The samples were shipped to Myriad Pharmaceuticals, Inc. for analysis of (4-Methoxy-phenyl)-methyl-(2-methyl-quinazolin-4-yl)-amine hydrochloride. Pharmacokinetic analysis was conducted using WinNonlin 4.0®.

[2] = Phase I clinical trial: safety and tolerability in subjects with refractory solid tumors; type: in vivo, human
Procedure: as §1
Electrocardiograms were obtained prior to starting the infusion and within 30 minutes of the end of infusion for each infusion of the first cycle. Electrocardiograms on Day 1 were obtained in triplicate 5 minutes apart.
Neurocognitive assessments were made by administration of the Mini-Mental State Examination (MMSE), the Hopkins Verbal Learning and timed Grooved Pegboard tests before administration of the intravenous infusion and approximately 24 hours of the infusion at each weekly administration of the first cycle.
On days 1, 8, and 15 of each cycle, vital signs were obtained prior to the first dose, at 15, 30, and 60 minutes after the initiation of the infusion, and at 0.5, 1, 1.5, 2, and 4 hours after the end of the intravenous infusion. Vital signs at all time points beyond the start of the intravenous infusion included heart rate, blood pressure and respirations. Temperature was measured at the end of the infusion and 4 hours later.
Individual subjects were allowed to continue on repeated weekly×3 administrations every 28 days with no dose increase provided there was no unacceptable toxicity or disease progression.
Tumor response was evaluated by response evaluation criteria in solid tumors (RECIST) criteria. To prevent sever hypersensitivity reactions due to Cremophor® EL, subjects were premedicated with oral dexamethasone (20 mg) administered approximately 12 and 6 hours before the intravenous infusion with (4-Methoxy-phenyl)-methyl-(2-methyl-quinazolin-4-yl)-amine hydrochloride, diphenhydramine (50 mg) or its equivalent administered intravenously 30-60 minutes before (4-Methoxy-phenyl)-methyl-(2-methyl-quinazolin-4-yl)-amine hydrochloride, and cimetidine (300 mg) or ranitidine (50 mg) administered intravenously 30-60 minutes before (4-Methoxy-phenyl)-methyl-(2-methyl-quinazolin-4-yl)-amine hydrochloride.

[3] = 1 mg/m^2, Day 1, 1.0 mg/m^2 i.v., infusion 1 hr, LLOQ 1 ng/mL
[4] = 1 mg/m^2, Day 15, 1.0 mg/m^2 i.v., infusion 1 hr, LLOQ 1 ng/mL
[5] = 1.5 mg/m^2, Day 15, 1.5 mg/m^2 i.v., infusion 1 hr, LLOQ 1 ng/mL
[6] = 2.1 mg/m^2, Day 1, 2.1 mg/m^2 i.v., infusion 1 hr, LLOQ 1 ng/mL
[7] = 2.1 mg/m^2, Day 15, 2.1 mg/m^2 i.v., infusion 1 hr, LLOQ 1 ng/mL
[8] = 2.7 mg/m^2, Day 1, 2.7 mg/m^2 i.v., infusion 1 hr, LLOQ 1 ng/mL
[9] = 3.3 mg/m^2, Day 1, 3.3 mg/m^2 i.v., infusion 2 hr, LLOQ 1 ng/mL
[10] = 3.3 mg/m^2, Day 15, 3.3 mg/m^2 i.v., infusion 2 hr, LLOQ 1 ng/mL
[11] = 3.9 mg/m^2, Day 15, 3.9 mg/m^2 i.v., infusion 2 hr, LLOQ 1 ng/mL
[12] = 4.5 mg/m^2, Day 15, 4.5 mg/m^2 i.v., infusion 2 hr, LLOQ 1 ng/mL

COc1ccc(N(C)c2nc(C)nc3ccccc23)cc1 [(4-Methoxy-phenyl)-methyl-(2-methyl-quinazolin-4-yl)-amine hydrochloride]
concentration at 1 h ([1]; 0.3 mg/m^2, Day 15, 0.3 mg/m^2 i.v., infusion 1 hr, LLOQ 1 ng/mL): 1.43 ng/mL | concentration at 24 h after end of infusion ([1]; 0.6 mg/m^2, Day 1, 0.6 mg/m^2 i.v., infusion 1 hr, LLOQ 1 ng/mL): 5.89 ng/mL | concentration at 12 h after end of infusion [1, 3]: 3.62 ng/mL | concentration at 24 h after end of infusion [1, 3]: 1.98 ng/mL | concentration at 1 h [1, 4]: 2.24 ng/mL | concentration at 2 h [1, 4]: 1.23 ng/mL | concentration at 4 h [1, 4]: 1.26 ng/mL | concentration at 12 h after end of infusion ([1]; 1.5 mg/m^2, Day 1, 1.5 mg/m^2 i.v., infusion 1 hr, LLOQ 1 ng/mL): 1.95 ng/mL | concentration at 4 h [1, 5]: 1.01 ng/mL | concentration at 6 h ([1]; 1.5 mg/m^2, Day 15, 1.5 mg/m^2 i.v., infusion 1 hr, 6 hr after infusion, LLOQ 1 ng/mL): 1.47 ng/mL | concentration at 12 h [1, 5]: 2.24 ng/mL | concentration at 24 h [1, 5]: 1.63 ng/mL | concentration at 1 h after end of infusion [1, 6]: 4.06 ng/mL | concentration at 2 h after end of infusion [1, 6]: 3.28 ng/mL | concentration at 4 h after end of infusion [1, 6]: 2.64 ng/mL | concentration at 6 h after end of infusion ([1]; 2.1 mg/m^2, Day 1, 2.1 mg/m^2 i.v., infusion 1 hr, 6 hr after infusion, LLOQ 1 ng/mL): 1.12 ng/mL | concentration at 12 h after end of infusion [1, 6]: 1.09 ng/mL | concentration at 1 h [1, 7]: 4.81 ng/mL | concentration at 4 h [1, 7]: 2.05 ng/mL | concentration at 12 h [1, 7]: 1.09 ng/mL | concentration at 24 h [1, 7]: 2.63 ng/mL | concentration at 1 h after end of infusion [1, 8]: 6.16 ng/mL | concentration at 2 h after end of infusion [1, 8]: 4.37 ng/mL | concentration at 4 h after end of infusion [1, 8]: 3.16 ng/mL | concentration at 6 h after end of infusion ([1]; 2.7 mg/m^2, Day 1, 2.7 mg/m^2 i.v., infusion 1 hr, 6 hr after infusion, LLOQ 1 ng/mL): 2.09 ng/mL | concentration at 12 h after end of infusion [1, 8]: 2.35 ng/mL | concentration at 24 h after end of infusion [1, 8]: 1.36 ng/mL | concentration at 12 h ([1]; 2.7 mg/m^2, Day 15, 2.7 mg/m^2 i.v., infusion 1 hr, LLOQ 1 ng/mL): 3.95 ng/mL | concentration at 2 h [1, 9]: 6.03 ng/mL | concentration at 24 h [1, 9]: 1.73 ng/mL | concentration at 1 h ([1]; 3.3 mg/m^2, Day 15, 3.3 mg/m^2 i.v., infusion 1 hr, LLOQ 1 ng/mL): 14.7 ng/mL | concentration at 1 h [1, 10]: 6.84 ng/mL | concentration at 2 h [1, 10]: 3.8 ng/mL | concentration at 24 h [1, 10]: 1.48 ng/mL | concentration at 1 h [1, 11]: 10.6 ng/mL | concentration at 2 h [1, 11]: 10.4 ng/mL | concentration at 4 h [1, 11]: 8.24 ng/mL | concentration at 24 h ([1]; 4.5 mg/m^2, Day 1, 4.5 mg/m^2 i.v., infusion 2 hr, LLOQ 1 ng/mL): 1.17 ng/mL | concentration at 1 h [1, 12]: 13.6 ng/mL | concentration at 2 h [1, 12]: 13.1 ng/mL | Cmax ([1]; Day 1): ~14 ng/mL | Cmax ([1]; Day 15): ~26 ng/mL | bradycardia ([2]; Phase 1 Trial): occasional episodes of bradycardia | dose limiting toxicity ([2]; Phase 1 Trial): vascular in nature, manifested by an acute coronary syndrome | intratumor bleeding ([2]; Phase 1 Trial): incidences of intratumor bleeding | systolic blood pressure ([2]; Phase 1 Trial): dose-related increase | effects on cardiac conduction (PR, QRS or QTc) ([2]; Phase 1 Trial, ECG): no significant effects | cytotoxity peripherally ([2]; Phase 1 Trial, at the administered doses): no evidence of cytotoxity peripherally | safety and tolerability ([2]; Phase 1 Trial, weekly intravenous administration): safe and tolerable | dose ranges found to be safely tolerated ([2]; human patients): less than 3.3 mg/m^2
